{"source": "patent US20230074545A1", "about": "“TREATMENT OF CANCER WITH CDK12/13 INHIBITORS” (Kinnate Biopharma Inc., priority 2019, published 2023)", "experiment_in_all_cases": "Radiometric kinase panel", "format_in_all_cases": "biochemical", "key": {"[1]": {"biological_target": "T1, TYRO3 (Homo sapiens, UniProt Q06418)", "T1 construct": "either as full-length or enzymatically active fragments; purchased ProQinase GmbH (Reaction Biology)", "method_in_brief": "(§1)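 Activity was measured radiometrically from [gamma-33P]-ATP incorporation into substrate. The kinases were recombinant human GST- or His-tagged proteins, full-length or active fragments, expressed in Sf9 or E. coli. Compound in 10% DMSO was added before the enzyme/substrate mix, which started the reaction.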"}, "[2]": {"biological_target": "T2, NEK3 (Homo sapiens, UniProt P51956)", "T2 construct": "either as full-length or enzymatically active fragments; purchased ProQinase GmbH (Reaction Biology)", "method_in_brief": "as §1"}, "[3]": {"biological_target": "T3, PKCeta (Homo sapiens, UniProt P24723)", "T3 construct": "either as full-length or enzymatically active fragments; purchased ProQinase GmbH (Reaction Biology); host or cells: Sf9 insect cells or E. coli", "method_in_brief": "as §1"}, "[4]": {"biological_target": "T4, TTBK2 (Homo sapiens, UniProt Q6IQ55)", "T4 construct": "either as full-length or enzymatically active fragments; purchased ProQinase GmbH (Reaction Biology)", "method_in_brief": "as §1"}, "[5]": {"biological_target": "T5, MAPKAPK5 (Homo sapiens, UniProt Q8IW41)", "T5 construct": "purchased ProQinase GmbH (Reaction Biology)", "method_in_brief": "as §1"}, "[6]": {"biological_target": "T6, PASK (Homo sapiens, UniProt Q96RG2)", "T6 construct": "either as full-length or enzymatically active fragments; purchased ProQinase GmbH (Reaction Biology)", "method_in_brief": "as §1"}, "[7]": {"biological_target": "T7, CDK2/CycD1 (Homo sapiens, UniProt P24941)", "T7 construct": "either as full-length or enzymatically active fragments; purchased ProQinase GmbH (Reaction Biology)", "method_in_brief": "as §1"}, "[8]": {"biological_target": "T8, CDK2/CycE1 (Homo sapiens, UniProt P24941)", "T8 construct": "either as full-length or enzymatically active fragments; purchased ProQinase GmbH (Reaction Biology); host or cells: Sf9 insect cells or E. coli (not specified per kinase)", "method_in_brief": "as §1"}, "[9]": {"biological_target": "T9, MEK2 (Homo sapiens, UniProt P36507)", "T9 construct": "either as full-length or enzymatically active fragments; purchased ProQinase GmbH (Reaction Biology)", "method_in_brief": "as §1"}, "[10]": {"biological_target": "T10, CAMK4 (Homo sapiens, UniProt Q16566)", "T10 construct": "either as full-length or enzymatically active fragments; purchased ProQinase GmbH (Reaction Biology)", "T10 sequence (Q16566 whole entry, the tested form may be a part)": "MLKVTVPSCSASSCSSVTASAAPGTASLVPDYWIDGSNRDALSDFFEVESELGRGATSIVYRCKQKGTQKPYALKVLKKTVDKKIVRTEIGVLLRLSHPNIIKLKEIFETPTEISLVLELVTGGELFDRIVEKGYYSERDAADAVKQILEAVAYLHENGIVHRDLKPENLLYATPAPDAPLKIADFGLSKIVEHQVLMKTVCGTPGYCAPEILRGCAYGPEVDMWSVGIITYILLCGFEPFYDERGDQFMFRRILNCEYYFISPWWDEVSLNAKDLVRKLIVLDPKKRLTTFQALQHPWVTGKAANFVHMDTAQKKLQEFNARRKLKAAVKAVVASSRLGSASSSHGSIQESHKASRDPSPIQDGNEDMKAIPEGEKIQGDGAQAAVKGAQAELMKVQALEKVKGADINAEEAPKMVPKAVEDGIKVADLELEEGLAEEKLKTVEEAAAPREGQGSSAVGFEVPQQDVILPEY", "method_in_brief": "as §1"}, "[11]": {"biological_target": "T11, MUSK (Homo sapiens, UniProt O15146)", "T11 construct": "either as full-length or enzymatically active fragments; purchased ProQinase GmbH (Reaction Biology)", "method_in_brief": "as §1"}, "[12]": {"biological_target": "T12, IRAK4 (Homo sapiens, UniProt Q9NWZ3)", "T12 construct": "purchased ProQinase GmbH (Reaction Biology)", "method_in_brief": "as §1"}, "[13]": {"biological_target": "T13, FGFR2 (Homo sapiens, UniProt P21802)", "T13 construct": "purchased ProQinase GmbH (Reaction Biology); host or cells: Sf9 insect cells or E. coli (not specified per kinase)", "method_in_brief": "as §1"}, "[14]": {"biological_target": "T14, LYN (Homo sapiens, UniProt P07948)", "T14 construct": "either as full-length or enzymatically active fragments; purchased ProQinase GmbH (Reaction Biology)", "method_in_brief": "as §1"}, "[15]": {"biological_target": "T15, MAP3K9 (Homo sapiens, UniProt P80192)", "T15 construct": "either as full-length or enzymatically active fragments; purchased ProQinase GmbH (Reaction Biology)", "method_in_brief": "as §1"}, "[16]": {"biological_target": "T16, CDK1/CycE1 (Homo sapiens, UniProt P06493)", "T16 construct": "either as full-length or enzymatically active fragments; purchased ProQinase GmbH (Reaction Biology); host or cells: Sf9 insect cells or E. coli", "method_in_brief": "as §1"}, "[17]": {"biological_target": "T17, ITK (Homo sapiens, UniProt Q08881)", "T17 construct": "purchased ProQinase GmbH (Reaction Biology); host or cells: Sf9 insect cells or E. coli (not specified per kinase)", "T17 sequence (Q08881 whole entry)": "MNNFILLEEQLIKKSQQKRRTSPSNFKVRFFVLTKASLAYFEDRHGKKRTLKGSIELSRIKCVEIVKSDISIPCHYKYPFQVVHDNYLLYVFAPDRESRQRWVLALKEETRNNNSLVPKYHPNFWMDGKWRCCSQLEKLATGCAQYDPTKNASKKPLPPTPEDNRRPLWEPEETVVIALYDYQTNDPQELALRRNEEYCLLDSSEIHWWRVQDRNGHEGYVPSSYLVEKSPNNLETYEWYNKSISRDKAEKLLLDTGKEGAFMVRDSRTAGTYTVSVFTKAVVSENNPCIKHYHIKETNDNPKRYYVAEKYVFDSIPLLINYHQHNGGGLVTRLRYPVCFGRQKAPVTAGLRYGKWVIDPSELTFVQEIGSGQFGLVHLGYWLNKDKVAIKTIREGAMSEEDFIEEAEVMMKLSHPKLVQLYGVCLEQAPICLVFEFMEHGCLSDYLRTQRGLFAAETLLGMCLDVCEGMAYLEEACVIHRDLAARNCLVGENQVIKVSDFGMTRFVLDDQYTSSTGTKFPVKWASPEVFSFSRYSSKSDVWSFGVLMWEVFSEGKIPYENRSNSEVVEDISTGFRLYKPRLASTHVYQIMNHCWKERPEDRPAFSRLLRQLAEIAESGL", "method_in_brief": "as §1"}, "[18]": {"biological_target": "T18, GRK6 (Homo sapiens, UniProt P43250)", "T18 construct": "purchased ProQinase GmbH (Reaction Biology)", "method_in_brief": "as §1"}, "[19]": {"biological_target": "T19, FGFR3 (Homo sapiens, UniProt P22607)", "T19 construct": "either as full-length or enzymatically active fragments; purchased ProQinase GmbH (Reaction Biology); host or cells: Sf9 insect cells or E. coli", "method_in_brief": "as §1"}, "[20]": {"biological_target": "T20, WNK2 (Homo sapiens, UniProt Q9Y3S1)", "T20 construct": "either as full-length or enzymatically active fragments; purchased ProQinase GmbH (Reaction Biology)", "T20 sequence (Q9Y3S1 whole entry, the tested form may be a part)": "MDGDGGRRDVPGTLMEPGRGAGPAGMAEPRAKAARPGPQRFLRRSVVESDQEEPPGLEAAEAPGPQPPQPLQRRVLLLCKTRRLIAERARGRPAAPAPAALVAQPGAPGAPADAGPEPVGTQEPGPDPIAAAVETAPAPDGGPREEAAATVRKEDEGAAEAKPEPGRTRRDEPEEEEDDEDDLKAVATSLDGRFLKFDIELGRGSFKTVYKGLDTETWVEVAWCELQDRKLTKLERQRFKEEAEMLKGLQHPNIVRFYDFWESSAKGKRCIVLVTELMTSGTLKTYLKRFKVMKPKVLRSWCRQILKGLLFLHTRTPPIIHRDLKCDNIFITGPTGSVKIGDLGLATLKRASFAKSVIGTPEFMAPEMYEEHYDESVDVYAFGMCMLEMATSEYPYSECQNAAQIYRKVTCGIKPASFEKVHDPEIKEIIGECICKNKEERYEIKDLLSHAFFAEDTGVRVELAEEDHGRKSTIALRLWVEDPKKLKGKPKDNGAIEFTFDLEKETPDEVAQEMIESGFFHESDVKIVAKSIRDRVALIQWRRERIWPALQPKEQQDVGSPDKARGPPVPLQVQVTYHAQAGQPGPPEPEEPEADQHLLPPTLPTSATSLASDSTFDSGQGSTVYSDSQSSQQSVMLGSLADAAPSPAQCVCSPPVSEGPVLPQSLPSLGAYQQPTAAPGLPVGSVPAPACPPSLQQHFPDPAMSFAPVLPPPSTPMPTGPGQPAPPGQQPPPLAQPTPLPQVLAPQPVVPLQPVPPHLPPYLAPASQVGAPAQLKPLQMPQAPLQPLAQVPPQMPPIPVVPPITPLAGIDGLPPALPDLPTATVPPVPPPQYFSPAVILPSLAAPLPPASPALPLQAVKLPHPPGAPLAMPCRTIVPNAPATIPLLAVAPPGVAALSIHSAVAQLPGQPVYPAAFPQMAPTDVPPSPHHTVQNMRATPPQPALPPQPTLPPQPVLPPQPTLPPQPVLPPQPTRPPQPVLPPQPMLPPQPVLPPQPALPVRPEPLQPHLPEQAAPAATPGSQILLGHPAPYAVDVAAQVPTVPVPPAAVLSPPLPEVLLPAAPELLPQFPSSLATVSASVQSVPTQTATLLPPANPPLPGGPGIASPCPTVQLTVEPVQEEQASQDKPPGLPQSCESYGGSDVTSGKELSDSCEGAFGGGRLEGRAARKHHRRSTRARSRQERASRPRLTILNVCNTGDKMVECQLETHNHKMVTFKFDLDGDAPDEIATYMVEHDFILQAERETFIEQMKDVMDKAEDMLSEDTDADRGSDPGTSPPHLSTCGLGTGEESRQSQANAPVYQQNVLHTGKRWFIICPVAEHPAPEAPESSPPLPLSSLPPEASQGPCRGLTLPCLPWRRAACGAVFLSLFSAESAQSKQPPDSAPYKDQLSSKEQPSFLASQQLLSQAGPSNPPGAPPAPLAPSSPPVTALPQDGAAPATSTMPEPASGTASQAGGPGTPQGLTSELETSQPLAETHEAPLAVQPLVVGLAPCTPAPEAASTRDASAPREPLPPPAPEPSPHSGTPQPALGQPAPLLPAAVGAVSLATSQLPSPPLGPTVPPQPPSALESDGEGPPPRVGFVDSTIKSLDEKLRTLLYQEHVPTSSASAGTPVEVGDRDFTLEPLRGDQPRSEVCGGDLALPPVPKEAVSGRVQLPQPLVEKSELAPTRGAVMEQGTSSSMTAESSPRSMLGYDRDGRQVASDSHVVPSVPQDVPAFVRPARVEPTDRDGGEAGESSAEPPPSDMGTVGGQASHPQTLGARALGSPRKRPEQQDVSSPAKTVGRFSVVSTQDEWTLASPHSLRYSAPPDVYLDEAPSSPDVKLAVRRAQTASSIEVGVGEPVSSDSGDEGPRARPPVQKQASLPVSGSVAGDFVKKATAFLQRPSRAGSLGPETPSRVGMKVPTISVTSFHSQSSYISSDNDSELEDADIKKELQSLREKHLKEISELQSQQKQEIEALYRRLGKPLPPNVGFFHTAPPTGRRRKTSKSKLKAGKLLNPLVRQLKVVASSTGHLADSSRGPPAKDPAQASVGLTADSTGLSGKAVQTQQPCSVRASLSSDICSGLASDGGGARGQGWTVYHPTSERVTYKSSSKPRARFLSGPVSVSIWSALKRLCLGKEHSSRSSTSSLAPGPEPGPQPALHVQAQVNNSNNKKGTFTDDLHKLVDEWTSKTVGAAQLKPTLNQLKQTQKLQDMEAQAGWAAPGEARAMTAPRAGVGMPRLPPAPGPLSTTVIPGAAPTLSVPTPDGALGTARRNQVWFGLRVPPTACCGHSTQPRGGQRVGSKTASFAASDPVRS", "method_in_brief": "as §1"}, "[21]": {"biological_target": "T21, MARK3 (Homo sapiens, UniProt P27448)", "T21 construct": "either as full-length or enzymatically active fragments; purchased ProQinase GmbH (Reaction Biology); host or cells: Sf9 insect cells or E. coli", "method_in_brief": "as §1"}, "[22]": {"biological_target": "T22, TAOK3 (Homo sapiens, UniProt Q9H2K8)", "T22 construct": "either as full-length or enzymatically active fragments; purchased ProQinase GmbH (Reaction Biology)", "method_in_brief": "as §1"}, "[23]": {"biological_target": "T23, EPHB4 (Homo sapiens, UniProt P54760)", "T23 construct": "either as full-length or enzymatically active fragments; purchased ProQinase GmbH (Reaction Biology)", "method_in_brief": "as §1"}, "[24]": {"biological_target": "T24, PRKG2 (Homo sapiens, UniProt Q13237)", "T24 construct": "either as full-length or enzymatically active fragments; purchased ProQinase GmbH (Reaction Biology)", "method_in_brief": "as §1"}, "[25]": {"biological_target": "T25, DAPK2 (Homo sapiens, UniProt Q9UIK4)", "T25 construct": "either as full-length or enzymatically active fragments; purchased ProQinase GmbH (Reaction Biology); host or cells: Sf9 insect cells or E. coli (not specified per kinase)", "method_in_brief": "as §1"}, "[26]": {"biological_target": "T26, CDK1/CycB1 (Homo sapiens, UniProt P06493)", "T26 construct": "either as full-length or enzymatically active fragments; purchased ProQinase GmbH (Reaction Biology); host or cells: Sf9 insect cells or E. coli", "T26 sequence (P06493 whole entry, the tested form may be a part)": "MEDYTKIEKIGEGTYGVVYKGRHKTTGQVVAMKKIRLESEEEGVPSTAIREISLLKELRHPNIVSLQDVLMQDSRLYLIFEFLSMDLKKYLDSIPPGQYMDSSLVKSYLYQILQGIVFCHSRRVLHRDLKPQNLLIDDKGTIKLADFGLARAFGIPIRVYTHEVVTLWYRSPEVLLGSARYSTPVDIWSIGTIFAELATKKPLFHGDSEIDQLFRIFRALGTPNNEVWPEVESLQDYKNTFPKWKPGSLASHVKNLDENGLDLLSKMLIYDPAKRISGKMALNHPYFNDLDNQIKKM", "T26 sequence (P14635 whole entry partner, the tested form may be a part)": "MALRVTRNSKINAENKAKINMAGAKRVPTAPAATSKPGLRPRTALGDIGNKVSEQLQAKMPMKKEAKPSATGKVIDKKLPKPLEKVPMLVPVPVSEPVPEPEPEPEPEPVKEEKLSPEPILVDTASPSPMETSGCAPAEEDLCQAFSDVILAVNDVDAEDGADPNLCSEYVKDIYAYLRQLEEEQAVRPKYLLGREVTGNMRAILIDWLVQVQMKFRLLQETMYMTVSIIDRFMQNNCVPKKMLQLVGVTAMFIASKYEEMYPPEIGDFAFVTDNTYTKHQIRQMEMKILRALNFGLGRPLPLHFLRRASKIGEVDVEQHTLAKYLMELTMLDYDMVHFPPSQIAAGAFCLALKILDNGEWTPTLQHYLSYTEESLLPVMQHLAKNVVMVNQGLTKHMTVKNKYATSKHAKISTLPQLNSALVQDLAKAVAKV", "method_in_brief": "as §1"}, "[27]": {"biological_target": "T27, HIPK4 (Homo sapiens, UniProt Q8NE63)", "T27 construct": "either as full-length or enzymatically active fragments; purchased ProQinase GmbH (Reaction Biology); host or cells: Sf9 insect cells or E. coli", "T27 sequence (Q8NE63 whole entry, the tested form may be a part)": "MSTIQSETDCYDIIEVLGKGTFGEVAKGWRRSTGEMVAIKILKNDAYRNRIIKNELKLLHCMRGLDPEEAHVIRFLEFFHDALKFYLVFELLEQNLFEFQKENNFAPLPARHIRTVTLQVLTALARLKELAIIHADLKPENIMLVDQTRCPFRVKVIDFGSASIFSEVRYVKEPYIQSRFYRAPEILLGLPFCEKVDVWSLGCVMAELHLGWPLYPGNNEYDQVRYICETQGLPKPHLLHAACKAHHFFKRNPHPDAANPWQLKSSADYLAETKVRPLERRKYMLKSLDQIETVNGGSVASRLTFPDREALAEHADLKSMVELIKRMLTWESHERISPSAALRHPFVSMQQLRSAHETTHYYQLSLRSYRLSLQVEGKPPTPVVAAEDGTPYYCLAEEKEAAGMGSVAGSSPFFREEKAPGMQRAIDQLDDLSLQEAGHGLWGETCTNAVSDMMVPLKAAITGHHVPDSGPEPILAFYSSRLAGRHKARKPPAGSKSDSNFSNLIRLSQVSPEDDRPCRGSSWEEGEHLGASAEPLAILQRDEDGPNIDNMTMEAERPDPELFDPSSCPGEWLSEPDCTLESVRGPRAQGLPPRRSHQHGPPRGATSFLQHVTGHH", "method_in_brief": "as §1"}, "[28]": {"biological_target": "T28, MKK7 (Homo sapiens, UniProt O14733)", "T28 construct": "either as full-length or enzymatically active fragments; purchased ProQinase GmbH (Reaction Biology); host or cells: Sf9 insect cells or E. coli (not specified per kinase)", "method_in_brief": "as §1"}, "[29]": {"biological_target": "T29, CDK12/CycK (Homo sapiens, UniProt Q9NYV4)", "T29 construct": "either as full-length or enzymatically active fragments; purchased ProQinase GmbH (Reaction Biology)", "method_in_brief": "as §1"}, "[30]": {"biological_target": "T30, CK1gamma2 (Homo sapiens, UniProt P78368)", "T30 construct": "purchased ProQinase GmbH (Reaction Biology)", "method_in_brief": "as §1"}}, "data": [{"smiles": "C=CC(=O)Nc1ccc(C(=O)N2CC[C@@H](Nc3ncc(C#N)cn3)C2)cc1", "note": "[Compound 4, (R)-N-(4-(3-((5-cyanopyrimidin-2-yl)amino)pyrrolidine-1-carbonyl)phenyl)acrylamide]", "values": [{"measurement": "inhibition at 1 µM", "setting": "[1]", "result": -3, "unit": "%"}, {"measurement": "inhibition at 1 µM", "setting": "[2]", "result": 6, "unit": "%"}, {"measurement": "inhibition at 1 µM", "setting": "[3]", "result": -14, "unit": "%"}, {"measurement": "inhibition at 1 µM", "setting": "[4]", "result": 3, "unit": "%"}, {"measurement": "inhibition at 1 µM", "setting": "[5]", "result": -1, "unit": "%"}, {"measurement": "inhibition at 1 µM", "setting": "[6]", "result": -5, "unit": "%"}, {"measurement": "inhibition at 1 µM", "setting": "[7]", "result": 18, "unit": "%"}, {"measurement": "inhibition at 1 µM", "setting": "[8]", "result": 9, "unit": "%"}, {"measurement": "inhibition at 1 µM", "setting": "[9]", "result": 3, "unit": "%"}, {"measurement": "inhibition at 1 µM", "setting": "[10]", "result": 8, "unit": "%"}, {"measurement": "inhibition at 1 µM", "setting": "[11]", "result": 7, "unit": "%"}, {"measurement": "inhibition at 1 µM", "setting": "[12]", "result": 0, "unit": "%"}, {"measurement": "inhibition at 1 µM", "setting": "[13]", "result": 0, "unit": "%"}, {"measurement": "inhibition at 1 µM", "setting": "[14]", "result": -8, "unit": "%"}, {"measurement": "inhibition at 1 µM", "setting": "[15]", "result": -4, "unit": "%"}, {"measurement": "inhibition at 1 µM", "setting": "[16]", "result": 11, "unit": "%"}, {"measurement": "inhibition at 1 µM", "setting": "[17]", "result": 1, "unit": "%"}, {"measurement": "inhibition at 1 µM", "setting": "[18]", "result": 0, "unit": "%"}, {"measurement": "inhibition at 1 µM", "setting": "[19]", "result": -16, "unit": "%"}, {"measurement": "inhibition at 1 µM", "setting": "[20]", "result": -8, "unit": "%"}, {"measurement": "inhibition at 1 µM", "setting": "[21]", "result": -17, "unit": "%"}, {"measurement": "inhibition at 1 µM", "setting": "[22]", "result": 6, "unit": "%"}, {"measurement": "inhibition at 1 µM", "setting": "[23]", "result": -4, "unit": "%"}, {"measurement": "inhibition at 1 µM", "setting": "[24]", "result": -6, "unit": "%"}, {"measurement": "inhibition at 1 µM", "setting": "[25]", "result": 9, "unit": "%"}, {"measurement": "inhibition at 1 µM", "setting": "[26]", "result": 13, "unit": "%"}, {"measurement": "inhibition at 1 µM", "setting": "[27]", "result": 11, "unit": "%"}, {"measurement": "inhibition at 1 µM", "setting": "[28]", "result": 11, "unit": "%"}, {"measurement": "inhibition at 1 µM", "setting": "[29]", "result": 90, "unit": "%"}, {"measurement": "inhibition at 1 µM", "setting": "[30]", "result": -1, "unit": "%"}]}]}
